The nature of data set [1]: UV/VIS absorption spectrum after enzymatic reduction. The format is physicochemical. The note with it: FIG. 1, reduced form. The procedure: (§1) After mixing and tempering to 25° C., the reaction was started by addition of 0.05 ml the above mentioned corresponding GlucDH2-solutions. An UV/VIS spectra was recorded after 30 min.
This is a significant advantage for redox-based assays, since it allows to reduce or avoid the interference from auto-fluorescent compounds comprised in (biological) samples

In another data set the test system is GlucDH mut 2. The data set can be described thus: Enzymatic reduction of Acetyl-cNAD by GlucDH mut 2 with glucose. The format is biochemical. The note with it: 25° C., Tris-buffer pH 8.5, glucose, UV/VIS spectra after 30 min. As to the method: Acetyl-cNADH and for comparison cNAD, cNADP were reduced by using GlucDH mut 2 (WO2010/094632) using the following conditions:
A Dilution buffer (NaCl 0.2 mol/l; Tris 0.1 mol/l; pH 8.5) was prepared as follows: 11.7 g NaCl and 12.1 g Tris (=[…]) were dissolved in 900 ml bidest. water and the pH was adjusted to pH 8.5 by addition of HCL 1N and filled to 1.00 l with bidest. Water.
Glucose-solution: 2.00 g D(+)-Glucose-Monohydrate were dissolved in 10.0 ml bidest. water. The solution is ready for usage after 2 h at room temperature.
GlucDH2-stock-solution: 10.0 mg of the enzyme (Lyo) were dissolved in 1.00 ml Tris-buffer.
Reduction of Acetyl-cNAD-solution (15 mmol/l): 9.90 mg Acetyl-cNAD (Mw=659.47 g/mol) were dissolved in 1.00 ml bidest. water.
100 μl GlucDH2-stock-solution were dissolved in 0.90 ml dilution buffer (dilution factor=10).
1. The tempered (25° C.) reagent solutions were pipetted into a 1 cm plastic cuvette as follows:
as §1

For the compound Acetyl-cNADH, the absorption maximum entry in data set [1] is listed as “about 380 nm”.
With `CC(=O)c1ccc[n+]([C@@H]2C[C@H](COP(=O)([O-])OP(=O)(O)OC[C@H]3O[C@@H](n4cnc5c(N)ncnc54)[C@H](O)[C@@H]3O)[C@@H](O)[C@H]2O)c1` [Acetyl-cNAD], in the data set with GlucDH mut 2, the “coenzyme function for a dehydrogenase” value is “serves as a coenzyme for a dehyrogenase”.

The record behind these values is patent US20130303768A1, “METHOD AND SUBSTANCES FOR PREPARATION OF N-SUBSTITUTED PYRIDINIUM COMPOUNDS” (ROCHE DIAGNOSTICS OPERATIONS, INC., priority 2011, published 2013).
